In patent US8846653B2, “Delta-tocotrienol treatment and prevention of pancreatic cancer” (University of South Florida, priority 2006, dated 2014):

Experiments:
Assay type in all cases: cell-based, human
[1] = tested on: MiaPaCa-2 cells; experiment: MTT assay of MiaPaCa2 cultures, single 50 μM dose; set-up: rel amt (relative value set to the control): unit not given here; conditions: MiaPaCa2, 50 μM; for MTT assay result, av-blank: average minus blank; for MTT assay result, av: average of 7 runs
Procedure, shortened: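 MiaPaCa-2 cells given a single 50 μM dose of test agent (tocotrienols, tocopherols, tocopherol succinate, geranylgeraniol or succinic acid) or vehicle (ethanol-extracted olive oil). Viability read by MTT at 48 or 120 hours after treatment, alongside vehicle-only control culture.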

[2] = tested on: BXPC3 cells; experiment: MTT assay of BXPC3 cultures, single 50 μM dose; set-up: MTT assay result, run 1 / MTT assay result, run 2 / MTT assay result, run 3 / MTT assay result, run 4 / MTT assay result, run 5 / MTT assay result, run 6 / MTT assay result, run 7 / MTT assay result, av (average) / MTT assay result, av-blank / MTT assay result, av: unit not given here; conditions: BXPC3, 50 μM; for MTT assay result, av-blank: average minus blank
Procedure, shortened: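 BXPC3 cells in 10% FBS medium at 37° C, 5% CO2, given a single 50 μM dose of tocotrienols, tocopherols, tocopherol succinate, geranylgeraniol, succinic acid or vehicle, alongside untreated control. Viability read by MTT at 48 or 120 hours.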

[3] = tested on: MiaPaCa-2 cells; experiment: MTS assay of MiaPaCa2 cultures, single 50 μM dose; conditions: MiaPaCa2, 50 μM
Procedure, shortened: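 MiaPaCa-2 pancreatic cancer cells were grown in complete DMEM with 10% fetal bovine serum, 1% penicillin-streptomycin and 1% L-glutamine, kept at 37° C. in a humidified 5% CO2 incubator. They received a single 50 μM dose of test agent or vehicle alongside an untreated control culture, and viability was assessed by MTS assay.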

alpha tocotrienol [T3 alpha]
rel amt (relative value set to the control) ([1]; 48 hours): 94
MTT assay result, av-blank ([1]; 48 hours): 0.292
MTT assay result, av ([1]; 48 hours): 0.338
MTT assay result, run 1 ([1]; 48 hours): 0.349
MTT assay result, run 2 ([1]; 48 hours): 0.341
MTT assay result, run 3 ([1]; 48 hours): 0.356
MTT assay result, run 4 ([1]; 48 hours): 0.329
MTT assay result, run 5 ([1]; 48 hours): 0.349
MTT assay result, run 6 ([1]; 48 hours): 0.316
MTT assay result, run 7 ([1]; 48 hours): 0.323
rel amt (relative value set to the control) ([1]; 120 hours (5 days)): 84
MTT assay result, av-blank ([1]; 120 hours (5 days)): 1.528
MTT assay result, av ([1]; 120 hours (5 days)): 1.580
MTT assay result, run 1 ([1]; 120 hours (5 days)): 1.497
MTT assay result, run 2 ([1]; 120 hours (5 days)): 1.573
MTT assay result, run 3 ([1]; 120 hours (5 days)): 1.569
MTT assay result, run 4 ([1]; 120 hours (5 days)): 1.55
MTT assay result, run 5 ([1]; 120 hours (5 days)): 1.811
MTT assay result, run 6 ([1]; 120 hours (5 days)): 1.589
MTT assay result, run 7 ([1]; 120 hours (5 days)): 1.47
rel amt (relative value set to the control) ([2]; 48 hours): 104
MTT assay result, av-blank ([2]; 48 hours): 0.236
MTT assay result, av (average) ([2]; 48 hours, average of 7 runs): 0.285
MTT assay result, run 1 ([2]; 48 hours): 0.279
MTT assay result, run 2 ([2]; 48 hours): 0.275
MTT assay result, run 3 ([2]; 48 hours): 0.295
MTT assay result, run 4 ([2]; 48 hours): 0.301
MTT assay result, run 5 ([2]; 48 hours): 0.3
MTT assay result, run 6 ([2]; 48 hours): 0.273
MTT assay result, run 7 ([2]; 48 hours): 0.275
rel amt (relative value set to the control) ([2]; 120 hours (5 days)): 97
MTT assay result, av-blank ([2]; 120 hours (5 days)): 0.558
MTT assay result, av ([2]; 120 hours (5 days), average of 7 runs): 0.613
MTT assay result, run 1 ([2]; 120 hours (5 days)): 0.584
MTT assay result, run 2 ([2]; 120 hours (5 days)): 0.637
MTT assay result, run 3 ([2]; 120 hours (5 days)): 0.594
MTT assay result, run 4 ([2]; 120 hours (5 days)): 0.63
MTT assay result, run 5 ([2]; 120 hours (5 days)): 0.62
MTT assay result, run 6 ([2]; 120 hours (5 days)): 0.61
MTT assay result, run 7 ([2]; 120 hours (5 days)): 0.618
rel amt (relative value set to the control) ([3]; 24 hours): 116
MTS assay result, run 1 ([3]; 24 hours): 0.274
MTS assay result, run 2 ([3]; 24 hours): 0.296
MTS assay result, run 3 ([3]; 24 hours): 0.293
MTS assay result, run 4 ([3]; 24 hours): 0.216
MTS assay result, run 5 ([3]; 24 hours): 0.245
MTS assay result, run 6 ([3]; 24 hours): 0.258
MTS assay result, run 7 ([3]; 24 hours): 0.243
MTS assay result, run 8 ([3]; 24 hours): 0.239
MTS assay result, run 9 ([3]; 24 hours): 0.258
rel amt (relative value set to the control) ([3]; 48 hours): 93
MTS assay result, run 1 ([3]; 48 hours): 0.336
MTS assay result, run 2 ([3]; 48 hours): 0.325
MTS assay result, run 3 ([3]; 48 hours): 0.343
MTS assay result, run 4 ([3]; 48 hours): 0.327
MTS assay result, run 5 ([3]; 48 hours): 0.39
MTS assay result, run 6 ([3]; 48 hours): 0.376
MTS assay result, run 7 ([3]; 48 hours): 0.322
MTS assay result, run 8 ([3]; 48 hours): 0.286
MTS assay result, run 9 ([3]; 48 hours): 0.338
rel amt (relative value set to the control) ([3]; 72 hours): 61
MTS assay result, run 1 ([3]; 72 hours): 0.279
MTS assay result, run 2 ([3]; 72 hours): 0.282
MTS assay result, run 3 ([3]; 72 hours): 0.294
MTS assay result, run 4 ([3]; 72 hours): 0.238
MTS assay result, run 5 ([3]; 72 hours): 0.302
MTS assay result, run 6 ([3]; 72 hours): 0.279
MTS assay result, run 7 ([3]; 72 hours): 0.254
MTS assay result, run 8 ([3]; 72 hours): 0.254
MTS assay result, run 9 ([3]; 72 hours): 0.273
